Structures are written as SMILES. Like-named read-outs stand apart in the source and are kept apart here.

Data set [1] can be described thus: Comparative dissolution test (wettability and redispersibility) in distillate water. The data set is classed as physicochemical. The settings on record: 4.0 mg Aprepitant in 8.0 mL distillate water, stirred 10 minutes.
A further data set is described as follows: PAMPA permeability. The following applies: for Papp: PAMPA. The data set is classed as in vitro ADME. The source says:
The sample containing the reference compound was a suspension of crystals visible by the naked eye, while the other two samples were opalescent colloid solutions. The receiver compartment was phosphate buffered saline with 1% sodium lauryl sulphate and 5% DMSO.
On the technique in general: In PAMPA a lipid-coated filter parts donor from acceptor wells.

The test system of the next data set is human liver microsomes. The following applies: cited from earlier work.
For data set [2] the following is noted: over 72 hours, single oral 300 mg dose of [14C]-Aprepitant; cited from earlier work.
The conditions of data set [3]: cited from earlier work.

The Papp is a coefficient for how fast a substance crosses the barrier. For `C[C@@H](O[C@H]1OCCN(Cc2n[nH]c(=O)[nH]2)[C@H]1c1ccc(F)cc1)c1cc(C(F)(F)F)cc(C(F)(F)F)c1` [Aprepitant, 5-[[(2R,3S)-2-[(1R)-1-[3,5-bis(trifluoromethyl)phenyl]ethoxy]-3-(4-fluorophenyl)-4-morpholinyl]methyl]-1,2-dihydro-3H-1,2,4-triazol-3-one], in data set [1], the “wettability and redispersibility / dissolution” value is “did not wet and did not dissolve”. In addition, the “ratio of PAMPA permeability for FeSSIF and FaSSIF” value in “PAMPA permeability” (FeSSIF/FaSSIF) is listed as 10.7. Besides, the Papp in “PAMPA permeability” (redispersed in FaSSIF) turned out to be 0.044 ×10⁻⁶ cm/s; in “PAMPA permeability” (redispersed in FeSSIF) it was 0.471 ×10⁻⁶ cm/s. Besides, the “CYP enzymes with no metabolism detected” value in the data set on human liver microsomes is given as “No metabolism by CYP2D6, CYP2C9, or CYP2E1 was detected”. In addition, the “metabolizing CYP enzymes” value in the data set with human liver microsomes was “metabolized primarily by CYP3A4 with minor metabolism by CYP1A2 and CYP2C19”. Besides, the “share of the radioactivity in plasma accounted for by Aprepitant” value in data set [2] is “approximately 24%”. The solubility entry is reported as “slightly soluble” in data set [3] (acetonitrile), “sparingly soluble” in data set [3] (ethanol), “sparingly soluble” in data set [3] (isopropyl acetate) and “practically insoluble” in data set [3] (water).

Values taken from patent US9504652B2 (Druggability Technologies IP Holdco (Jersey) Ltd., priority 2010, dated 2016).
